Data reported in PubChem BioAssay AID248 (DTP/NCI, 2004).
Where “and” joins values, the source holds several entries; their conditions need not be identical. Equal values may be shown once. Inconclusive results and toxic doses are left out. No stated cut-off is given here; in the data, active means T/C of 150% or more; inactive means T/C below 125%.

System: L1210 leukemia ip in BDF1 mice, survival T/C
Assay: NCI In Vivo Anticancer Drug Screen. Data for tumor model L1210 Leukemia (intraperitoneal) in B6D2F1 (BDF1) mice
Settings: endpoint: mean survival time, higher = longer survival
In short: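 In this screen, tumor-bearing mice given compound are compared to those given vehicle, and their survival values are reported as a treated-to-control quotient.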

[1] = dose: 100.0 mg/kg/injection, schedule: Q01DX009 (ip), vehicle: Klucel (hydroxypropylcellulose) (HPC)
[2] = dose: 100.0 mg/kg/injection, schedule: Q04DX003 (ip), vehicle: Klucel (hydroxypropylcellulose) (HPC)
[3] = dose: 200.0 mg/kg/injection, schedule: Q01DX009 (ip), vehicle: Klucel (hydroxypropylcellulose) (HPC)
[4] = dose: 200.0 mg/kg/injection, schedule: Q04DX003 (ip), vehicle: Klucel (hydroxypropylcellulose) (HPC)
[5] = dose: 400.0 mg/kg/injection, schedule: Q01DX009 (ip), vehicle: Klucel (hydroxypropylcellulose) (HPC)
[6] = dose: 400.0 mg/kg/injection, schedule: Q04DX003 (ip), vehicle: Klucel (hydroxypropylcellulose) (HPC)
[7] = dose: 100.0 mg/kg/injection, schedule: Q04DX002 (ip), vehicle: Klucel (hydroxypropylcellulose) (HPC)
[8] = dose: 100.0 mg/kg/injection, schedule: Q04DX003 (ip), vehicle: saline
[9] = dose: 25.0 mg/kg/injection, schedule: Q04DX003 (ip), vehicle: saline
[10] = dose: 50.0 mg/kg/injection, schedule: Q04DX003 (ip), vehicle: saline
[11] = dose: 50.0 mg/kg/injection, schedule: Q01DX001 (ip), vehicle: saline
[12] = dose: 100.0 mg/kg/injection, schedule: Q01DX001 (ip), vehicle: saline
[13] = dose: 200.0 mg/kg/injection, schedule: Q01DX001 (ip), vehicle: saline
[14] = dose: 100.0 mg/kg/injection, schedule: Q04DX002 (ip), vehicle: saline with Tween-80
[15] = dose: 200.0 mg/kg/injection, schedule: Q04DX002 (ip), vehicle: saline with Tween-80
[16] = dose: 400.0 mg/kg/injection, schedule: Q04DX002 (ip), vehicle: saline with Tween-80
[17] = dose: 400.0 mg/kg/injection, schedule: Q01DX001 (ip), vehicle: saline

Measured: T/C

O=[N+]([O-])c1ccc(C2OC2c2ccccc2)cc1 (stereo not given)
inactive: [1] 101 % of control | [2] 100 % of control | [3] 95 % of control | [4] 95 % of control | [5] 95 % of control | [6] 97 % of control

CCOC(=O)C1(C(=O)OCC)C(C)CC(O)N1C(=O)c1cc2c(cc1[N+](=O)[O-])OCO2 (stereo not given)
inactive: dose: 25.0 mg/kg/injection, schedule: Q04DX003 (ip), vehicle: Klucel (hydroxypropylcellulose) (HPC) 94 % of control | dose: 50.0 mg/kg/injection, schedule: Q04DX003 (ip), vehicle: Klucel (hydroxypropylcellulose) (HPC) 94 % of control | [2] 89 % of control

Cc1ccc(CN(C)N=Nc2ccccc2)cc1
inactive: [7] 91 % of control | dose: 200.0 mg/kg/injection, schedule: Q04DX002 (ip), vehicle: Klucel (hydroxypropylcellulose) (HPC) 102 % of control

Cc1nc(N)[nH]c(=O)c1CC(C)O (stereo not given)
inactive: [8] 92 % of control | dose: 200.0 mg/kg/injection, schedule: Q04DX003 (ip), vehicle: saline 100 % of control | dose: 400.0 mg/kg/injection, schedule: Q04DX003 (ip), vehicle: saline 92 % of control

COc1cc2c(c(OC)c1OC)-c1ccc(OC)c(=O)cc1C(NC(=S)Nc1ccccc1)CC2 (stereo not given)
inactive: dose: 62.5 mg/kg/injection, schedule: Q01DX009 (ip), vehicle: other 104 % of control | dose: 125.0 mg/kg/injection, schedule: Q01DX009 (ip), vehicle: other 98 % of control | dose: 250.0 mg/kg/injection, schedule: Q01DX009 (ip), vehicle: other 103 % of control

C[P+]1(CCc2ccc(Cl)cc2)CC=CC1
inactive: [9] 93 % of control | [10] 103 % of control | [8] 96 % of control and 88 % of control

O=C1CC(c2cccc(S(=O)(=O)O)c2)=NN1c1ccc([N+](=O)[O-])cn1
inactive: dose: 12.5 mg/kg/injection, schedule: Q04DX003 (ip), vehicle: saline 95 % of control | [9] 95 % of control | [10] 95 % of control

Cc1cccc(CN=C(N)CSS(=O)(=O)O)n1
inactive: dose: 25.0 mg/kg/injection, schedule: Q01DX009 (ip), vehicle: Klucel (hydroxypropylcellulose) (HPC) 104 % of control | dose: 25.0 mg/kg/injection, schedule: Q04DX002 (ip), vehicle: Klucel (hydroxypropylcellulose) (HPC) 92 % of control | dose: 50.0 mg/kg/injection, schedule: Q01DX009 (ip), vehicle: Klucel (hydroxypropylcellulose) (HPC) 96 % of control | dose: 50.0 mg/kg/injection, schedule: Q04DX002 (ip), vehicle: Klucel (hydroxypropylcellulose) (HPC) 103 % of control | [7] 101 % of control and 88 % of control

NC(=O)c1ccc[n+](CC(=O)NCc2ccc(Cl)cc2)c1
inactive: [8] 93 % of control

Cc1ncnc2[nH]c(=S)[nH]c12
inactive: dose: 75.0 mg/kg/injection, schedule: Q01DX001 (ip), vehicle: saline 105 % of control | dose: 150.0 mg/kg/injection, schedule: Q01DX001 (ip), vehicle: saline 101 % of control | dose: 300.0 mg/kg/injection, schedule: Q01DX001 (ip), vehicle: saline 100 % of control

CCOC(=O)C1(c2cc(NS(=O)(=O)N(C)C)c(Cl)cc2NS(=O)(=O)N(C)C)CCCC1=O (stereo not given)
inactive: [11] 104 % of control | [12] 102 % of control | [13] 91 % of control

CN(C)/N=N/c1nc[nH]c1C(=O)N/N=C/c1ccc(N(CCCl)CCCl)cc1
inactive: dose: 100.0 mg/kg/injection, schedule: Q01DX001 (ip), vehicle: other 100 % of control | dose: 200.0 mg/kg/injection, schedule: Q01DX001 (ip), vehicle: other 104 % of control | dose: 400.0 mg/kg/injection, schedule: Q01DX001 (ip), vehicle: other 98 % of control

OCc1cc(-c2ccc(Cl)cc2)nc2c(C(F)(F)F)cccc12
inactive: [1] 108 % of control | [2] 102 % of control | [3] 111 % of control | [4] 104 % of control | [5] 109 % of control | [6] 102 % of control

Cn1cncc1CC1COC(=O)C1C(O)c1ccccc1 (stereo not given)
inactive: [12] 108 % of control | [13] 107 % of control

CC1(C(=O)O)C2C3C=CC(C3)C21 (stereo not given)
inactive: dose: 100.0 mg/kg/injection, schedule: Q01DX001 (ip), vehicle: saline with Tween-80 97 % of control | dose: 200.0 mg/kg/injection, schedule: Q01DX001 (ip), vehicle: saline with Tween-80 93 % of control | dose: 400.0 mg/kg/injection, schedule: Q01DX001 (ip), vehicle: saline with Tween-80 92 % of control

Cc1c2ccncc2c(C)c2c1[nH]c1ccc(Cl)cc12
inactive: dose: 37.5 mg/kg/injection, schedule: Q01DX001 (oral), vehicle: saline with Tween-80 102 % of control | dose: 50.0 mg/kg/injection, schedule: Q01DX009 (ip), vehicle: saline with Tween-80 96 % of control | dose: 50.0 mg/kg/injection, schedule: Q04DX003 (ip), vehicle: saline with Tween-80 104 % of control | dose: 75.0 mg/kg/injection, schedule: Q01DX001 (oral), vehicle: saline with Tween-80 103 % of control | dose: 100.0 mg/kg/injection, schedule: Q01DX009 (ip), vehicle: saline with Tween-80 94 % of control | dose: 100.0 mg/kg/injection, schedule: Q04DX003 (ip), vehicle: saline with Tween-80 98 % of control | dose: 150.0 mg/kg/injection, schedule: Q01DX001 (oral), vehicle: saline with Tween-80 97 % of control | dose: 200.0 mg/kg/injection, schedule: Q01DX001 (oral), vehicle: saline with Tween-80 108 % of control | dose: 200.0 mg/kg/injection, schedule: Q01DX009 (ip), vehicle: saline with Tween-80 92 % of control | dose: 200.0 mg/kg/injection, schedule: Q04DX003 (ip), vehicle: saline with Tween-80 90 % of control | dose: 400.0 mg/kg/injection, schedule: Q01DX001 (oral), vehicle: saline with Tween-80 107 % of control | dose: 800.0 mg/kg/injection, schedule: Q01DX001 (oral), vehicle: saline with Tween-80 113 % of control

COc1ccc(NC(=O)Oc2ccc(-c3ccccc3)cc2Br)cc1
inactive: [2] 96 % of control | [4] 96 % of control | [6] 92 % of control

COC(=O)c1cncc(C(=O)OC)c1
inactive: dose: 100.0 mg/kg/injection, schedule: Q04DX003 (ip), vehicle: saline sonified 95 % of control | dose: 200.0 mg/kg/injection, schedule: Q04DX003 (ip), vehicle: saline sonified 104 % of control | dose: 400.0 mg/kg/injection, schedule: Q04DX003 (ip), vehicle: saline sonified 97 % of control

Cc1nn(C2CC(OC(=O)c3ccc([N+](=O)[O-])cc3)C(OC(=O)c3ccc([N+](=O)[O-])cc3)C(COC(=O)c3ccc([N+](=O)[O-])cc3)O2)c(=O)[nH]c1=O (stereo not given)
inactive: dose: 100.0 mg/kg/injection, schedule: Q01DX005 (ip), vehicle: saline 100 % of control | dose: 200.0 mg/kg/injection, schedule: Q01DX005 (ip), vehicle: saline 96 % of control

CCNC(=S)NNC(=O)c1ccc(N=NN(C)C)cc1
inactive: [14] 100 % of control | [15] 94 % of control | [16] 100 % of control

N#CC[CH2][Sn]([CH2]CC#N)([CH2]CC#N)[CH2]CC#N
inactive: [14] 100 % of control | [15] 96 % of control | [16] 96 % of control

NCCCc1nc(N)nc(N)c1-c1ccc(Cl)cc1
inactive: [9] 104 % of control | [10] 110 % of control | [8] 103 % of control

Clc1ccccc1N1CCN(c2c3c(nc4ccccc24)CCCCC3)CC1
inactive: [12] 97 % of control | [13] 103 % of control | [17] 97 % of control

CC(=O)CC(=O)Nc1ccc(Cc2ccc(Br)cc2)cc1
inactive: [12] 96 % of control | [13] 95 % of control | [17] 91 % of control

CCOC(=O)C(=O)c1cn(C)c2ccccc12
inactive: dose: 50.0 mg/kg/injection, schedule: Q01DX001 (ip), vehicle: carboxymethylcellulose (CMC) 109 % of control | dose: 100.0 mg/kg/injection, schedule: Q01DX001 (ip), vehicle: carboxymethylcellulose (CMC) 106 % of control | dose: 200.0 mg/kg/injection, schedule: Q01DX001 (ip), vehicle: carboxymethylcellulose (CMC) 106 % of control | dose: 400.0 mg/kg/injection, schedule: Q01DX001 (ip), vehicle: carboxymethylcellulose (CMC) 101 % of control

Cn1c(=O)c(-c2ccccc2)[n+]([O-])c2ccccc21
inactive: [11] 104 % of control | [12] 101 % of control | [13] 101 % of control | [17] 101 % of control

CN(Cc1ccccc1)C(=O)c1cccc([N+](=O)[O-])c1
inactive: [1] 98 % of control | [3] 100 % of control | [5] 95 % of control
